Reference: paper PMC9120478 (Nature Communications, 2022)

Biological target: T1, F666A mutant TRPV3 (Mus musculus, UniProt Q8K424, F666A)
T1 construct: expressed in transfected cells; host or cells: HEK 293 S GnTI- cells (baculovirus transduction)
T1 sequence (Q8K424 1-791 F666A): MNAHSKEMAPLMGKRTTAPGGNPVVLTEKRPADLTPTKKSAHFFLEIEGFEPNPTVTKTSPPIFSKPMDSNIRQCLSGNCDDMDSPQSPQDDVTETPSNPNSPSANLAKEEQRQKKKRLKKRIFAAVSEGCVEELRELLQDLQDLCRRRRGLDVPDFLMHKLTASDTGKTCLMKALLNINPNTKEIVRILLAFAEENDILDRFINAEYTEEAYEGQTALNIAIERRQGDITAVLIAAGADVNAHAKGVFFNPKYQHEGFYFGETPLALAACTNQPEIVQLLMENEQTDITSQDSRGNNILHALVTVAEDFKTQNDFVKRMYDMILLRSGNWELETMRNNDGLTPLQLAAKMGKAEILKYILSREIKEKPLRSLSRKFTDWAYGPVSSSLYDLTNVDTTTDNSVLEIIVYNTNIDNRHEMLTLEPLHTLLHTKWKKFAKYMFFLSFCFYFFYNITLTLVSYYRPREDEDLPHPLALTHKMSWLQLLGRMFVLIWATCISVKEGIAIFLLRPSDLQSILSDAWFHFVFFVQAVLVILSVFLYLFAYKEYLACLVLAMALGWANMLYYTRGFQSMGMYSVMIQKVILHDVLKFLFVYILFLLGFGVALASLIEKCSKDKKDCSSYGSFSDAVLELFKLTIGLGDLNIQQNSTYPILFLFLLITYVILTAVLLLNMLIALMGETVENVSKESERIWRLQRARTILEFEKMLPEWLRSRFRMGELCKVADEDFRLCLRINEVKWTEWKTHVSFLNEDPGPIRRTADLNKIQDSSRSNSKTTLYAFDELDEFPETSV
Experiment: Fura-2 ratiometric Ca2+ uptake, inhibition of 2-APB-evoked response
Assay type: cell-based
Conditions: n = 3
Protocol: GFP-free C-terminally strep-tagged wild-type TRPV3, TRPV3-Y564A, TRPV3-Y594A, TRPV3-F633A, TRPV3-I663W, and TRPV3-F666A were expressed in HEK 293 S GnTI^− cells as previously described[41],[42],[53]. In short, 48 h after transduction, 1-ml aliquots of cell suspension were collected by centrifugation at 550 g for 5 min using an Eppendorf 5424 centrifuge. The cells were resuspended in the pre-warmed modified HEPES-buffered saline (HBS) containing 118 mM NaCl, 4.8 mM KCl, 1 mM MgCl2, 5 mM D-glucose, and 10 mM HEPES pH 7.4 and 5 μg/ml Fura-2 AM (Thermo Fisher Scientific) and incubated for 45 min at 37 °C. The Fura-2-loaded cells were then centrifuged for 5 min at 550 g, resuspended in the pre-warmed, modified HBS and incubated again for 30 min at 37 °C in the dark. The cells were subsequently pelleted and washed twice in the modified HBS. The washed cell pellets were kept on ice in the dark before taking an aliquot for fluorescence measurements. […] We used the lower CaCl2 concentration than before[42],[28] (2.5 mM) to minimize non-specific effects, which often appeared as a drift in the Fura-2 signal at high Ca^2+ concentration, presumably due to cell death as a result of calcium overload. Fluorescence measurements were conducted using a QuantaMaster 40 spectrofluorometer (Photon Technology International) at room temperature in a quartz cuvette under constant stirring. After 60 s since the beginning, the recording was paused and 2-APB was added. After the addition of 2-APB, the recording was continued for the additional 140 s. Changes in intracellular Ca^2+ were measured by taking the ratio of fluorescence emitted at 510 nm at the excitation wavelength of 340 nm and 380 nm. […] The data were processed using Origin 9.0 (OriginLab) software.

In the case of `CCCCOc1ccc(C(=O)CCN2CCCCC2)cc1` [dyclonine, 1-(4-butoxyphenyl)-3-piperidin-1-ylpropan-1-one], the IC50 (HEK 293 GnTI- cells, 200 µM 2-APB after pre-incubation with inhibitor) is reported as 673 ± 37 µM and the “nHill of inhibition curve, F666A” value (logistic fit) is reported as 2.07 ± 0.08.
